pIC50: −log10 of the molar value.
Tests used:
Test in all cases: cells
Conditions in all cases: Homo sapiens
ACN = format: functional, cell-based;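 also: growth inhibition of the human ACN cell line, read out via cell viability testing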
Description: SANGER: Inhibition of human ACN cell growth in a cell viability assay.

NCI-H1581 = format: functional, cell-based;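 also: cell growth inhibition read out by a viability assay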
Description: SANGER: Inhibition of human NCI-H1581 cell growth in a cell viability assay.

EM-2 = format: functional, cell-based;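 also: growth inhibition of EM-2 cells, read out with a cell viability assay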
Description: SANGER: Inhibition of human EM-2 cell growth in a cell viability assay.

A4-Fuk = format: functional, cell-based;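 also: growth inhibition of A4-Fuk cells, read out by a cell viability assay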
Description: SANGER: Inhibition of human A4-Fuk cell growth in a cell viability assay.

TE-11 = format: functional, cell-based;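 also: growth inhibition of human TE-11 cells, read out by a cell viability assay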
Description: SANGER: Inhibition of human TE-11 cell growth in a cell viability assay.

OS-RC-2 = format: functional, cell-based;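 also: growth inhibition of human OS-RC-2 cells, measured by a cell viability assay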
Description: SANGER: Inhibition of human OS-RC-2 cell growth in a cell viability assay.

KM12 = format: functional, cell-based;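 also: KM12 cell growth inhibition, read out with a cell viability assay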
Description: SANGER: Inhibition of human KM12 cell growth in a cell viability assay.

SJSA-1 = format: functional, cell-based;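 also: growth inhibition of human SJSA-1 cells, read out through a cell viability measurement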
Description: SANGER: Inhibition of human SJSA-1 cell growth in a cell viability assay.

CAS-1 = format: functional, cell-based;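 also: growth inhibition of CAS-1 cells, measured with a cell viability assay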
Description: SANGER: Inhibition of human CAS-1 cell growth in a cell viability assay.

DOHH-2 = format: functional, cell-based;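 also: growth inhibition of human DOHH-2 cells, read out with a cell viability assay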
Description: SANGER: Inhibition of human DOHH-2 cell growth in a cell viability assay.

TE-1 = format: functional, cell-based
Description: SANGER: Inhibition of human TE-1 cell growth in a cell viability assay.

LS-123 = format: functional, cell-based
Description: SANGER: Inhibition of human LS-123 cell growth in a cell viability assay.

NCI-H2126 = format: functional, cell-based;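 also: growth inhibition of the cancer cell line, determined with a cell viability readout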
Description: SANGER: Inhibition of human NCI-H2126 cell growth in a cell viability assay.

8-MG-BA = format: functional, cell-based;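 also: growth inhibition of 8-MG-BA cells, read out with a cell viability assay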
Description: SANGER: Inhibition of human 8-MG-BA cell growth in a cell viability assay.

PSN1 = format: functional, cell-based;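 also: suppression of growth of human PSN1 cells, read out by a cell viability assay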
Description: SANGER: Inhibition of human PSN1 cell growth in a cell viability assay.

HOP-62 = format: functional, cell-based;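 also: cell growth inhibition determined with a viability assay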
Description: SANGER: Inhibition of human HOP-62 cell growth in a cell viability assay.

P30-OHK = format: functional, cell-based;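 also: growth inhibition of the P30-OHK cell line, read out with a cell viability assay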
Description: SANGER: Inhibition of human P30-OHK cell growth in a cell viability assay.

NCI-H226 = format: functional, cell-based;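 also: cell viability read-out used to gauge growth inhibition of the cells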
Description: SANGER: Inhibition of human NCI-H226 cell growth in a cell viability assay.

SNU-5 = format: functional, cell-based;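 also: cell viability readout used to measure growth inhibition in human NCI-SNU-5 cells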
Description: SANGER: Inhibition of human NCI-SNU-5 cell growth in a cell viability assay.

CW-2 = format: functional, cell-based;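 also: growth inhibition of CW-2 cells, read out by a cell viability assay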
Description: SANGER: Inhibition of human CW-2 cell growth in a cell viability assay.

SW684 = format: functional, cell-based;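 also: growth inhibition of human SW684 cells, measured by a cell viability assay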
Description: SANGER: Inhibition of human SW684 cell growth in a cell viability assay.

ML-2 = format: functional, cell-based;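 also: growth inhibition of ML-2 cells, measured with a cell viability readout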
Description: SANGER: Inhibition of human ML-2 cell growth in a cell viability assay.

HCE-T = format: functional, cell-based;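 also: cell viability assay read-out, reporting inhibition of HCE-T cell growth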
Description: SANGER: Inhibition of human HCE-T cell growth in a cell viability assay.

MFH-ino = format: functional, cell-based;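 also: growth inhibition of human MFH-ino cells, read out by a cell viability assay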
Description: SANGER: Inhibition of human MFH-ino cell growth in a cell viability assay.

SK-LMS-1 = format: functional, cell-based;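 also: growth inhibition of human SK-LMS-1 cells, read out with a cell viability assay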
Description: SANGER: Inhibition of human SK-LMS-1 cell growth in a cell viability assay.

NH-12 = format: functional, cell-based;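 also: growth inhibition of NH-12 cells, read out with a cell viability assay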
Description: SANGER: Inhibition of human NH-12 cell growth in a cell viability assay.

BB30-HNC = format: functional, cell-based;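 also: growth inhibition of the cultured cell line, read out by a cell viability assay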
Description: SANGER: Inhibition of human BB30-HNC cell growth in a cell viability assay.

EW-16 = format: functional, cell-based;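 also: growth inhibition of human EW-16 cells, read out as cell viability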
Description: SANGER: Inhibition of human EW-16 cell growth in a cell viability assay.

COR-L88 = format: functional, cell-based;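 also: growth inhibition of COR-L88 cells, read out with a cell viability assay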
Description: SANGER: Inhibition of human COR-L88 cell growth in a cell viability assay.

BB65-RCC = format: functional, cell-based;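 also: growth inhibition of the cell line, measured with a cell viability assay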
Description: SANGER: Inhibition of human BB65-RCC cell growth in a cell viability assay.

LS-1034 = format: functional, cell-based
Description: SANGER: Inhibition of human LS-1034 cell growth in a cell viability assay.

ES7 = format: functional, cell-based;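 also: growth inhibition of cultured human ES7 cells, read out as cell viability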
Description: SANGER: Inhibition of human ES7 cell growth in a cell viability assay.

IA-LM = format: functional, cell-based;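 also: cell viability assay measuring growth inhibition of human IA-LM cells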
Description: SANGER: Inhibition of human IA-LM cell growth in a cell viability assay.

COLO-829 = format: functional, cell-based
Description: SANGER: Inhibition of human COLO-829 cell growth in a cell viability assay.

LU-139 = format: functional, cell-based
Description: SANGER: Inhibition of human LU-139 cell growth in a cell viability assay.

LB2241-RCC = format: functional, cell-based;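 also: cell viability assay measuring how strongly the cultured human renal carcinoma line is prevented from growing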
Description: SANGER: Inhibition of human LB2241-RCC cell growth in a cell viability assay.

U-87 MG = format: functional, cell-based, U-87MG ATCC;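 also: growth inhibition of the cells measured with a viability assay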
Description: SANGER: Inhibition of human U-87-MG cell growth in a cell viability assay.

EW-18 = format: functional, cell-based;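 also: growth inhibition of EW-18 cells, read out by a cell viability assay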
Description: SANGER: Inhibition of human EW-18 cell growth in a cell viability assay.

LC-2-ad = format: functional, cell-based;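 also: growth inhibition of human LC-2-ad cells, read out with a cell viability assay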
Description: SANGER: Inhibition of human LC-2-ad cell growth in a cell viability assay.

NB69 = format: functional, cell-based;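 also: growth inhibition of NB69 cells, determined by a cell viability assay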
Description: SANGER: Inhibition of human NB69 cell growth in a cell viability assay.

BV-173 = format: functional, cell-based
Description: SANGER: Inhibition of human BV-173 cell growth in a cell viability assay.

NMC-G1 = format: functional, cell-based;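 also: growth inhibition of the NMC-G1 cell line, measured with a cell viability read-out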
Description: SANGER: Inhibition of human NMC-G1 cell growth in a cell viability assay.

A3-KAW = format: functional, cell-based;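 also: growth inhibition of human A3-KAW cells, read out with a cell viability assay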
Description: SANGER: Inhibition of human A3-KAW cell growth in a cell viability assay.

K5 = format: functional, cell-based
Description: SANGER: Inhibition of human K5 cell growth in a cell viability assay.

KGN = format: functional, cell-based;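 also: growth inhibition of KGN cells, read out with a cell viability assay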
Description: SANGER: Inhibition of human KGN cell growth in a cell viability assay.

MPP-89 = format: functional, cell-based;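 also: growth inhibition of human MPP-89 cells, read out with a cell viability assay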
Description: SANGER: Inhibition of human MPP-89 cell growth in a cell viability assay.

LS-411N = format: functional, cell-based
A498 = format: functional, cell-based;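 also: growth inhibition of human A498 cells, read out with a cell viability assay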
Description: SANGER: Inhibition of human A498 cell growth in a cell viability assay.

NCI-H23 = format: functional, cell-based;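 also: cell viability assay measuring growth inhibition of NCI-H23 cells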
Description: SANGER: Inhibition of human NCI-H23 cell growth in a cell viability assay.

SF-539 = format: functional, cell-based;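 also: Read-out is a cell viability assay, with IC50 reflecting inhibition of cell growth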
Description: SANGER: Inhibition of human SF539 cell growth in a cell viability assay.

MHH-NB-11 = format: functional, cell-based;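 also: growth inhibition of human MHH-NB-11 cells, read out by a cell viability assay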
Description: SANGER: Inhibition of human MHH-NB-11 cell growth in a cell viability assay.

QIMR-WIL = format: functional, cell-based;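 also: growth inhibition of QIMR-WIL cells, read out with a cell viability assay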
Description: SANGER: Inhibition of human QIMR-WIL cell growth in a cell viability assay.

EW-1 = format: functional, cell-based
Description: SANGER: Inhibition of human EW-1 cell growth in a cell viability assay.

COLO-668 = format: functional, cell-based
Description: SANGER: Inhibition of human COLO-668 cell growth in a cell viability assay.

ALL-PO = format: functional, cell-based;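 also: growth inhibition of ALL-PO cells, read out by a cell viability assay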
Description: SANGER: Inhibition of human ALL-PO cell growth in a cell viability assay.

NB13 = format: functional, cell-based;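 also: cell viability readout measuring growth inhibition of human NB13 cells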
Description: SANGER: Inhibition of human NB13 cell growth in a cell viability assay.

D283 Med = format: functional, cell-based
Description: SANGER: Inhibition of human D-283MED cell growth in a cell viability assay.

EW-3 = format: functional, cell-based;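 also: cell viability assay read-out, IC50 reflects inhibition of growth of the EW-3 cells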
Description: SANGER: Inhibition of human EW-3 cell growth in a cell viability assay.

CTB-1 = format: functional, cell-based
Description: SANGER: Inhibition of human CTB-1 cell growth in a cell viability assay.

D-502MG = format: functional, cell-based
Description: SANGER: Inhibition of human D-502MG cell growth in a cell viability assay.

TE-8 = format: functional, cell-based;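 also: growth inhibition of TE-8 cells, measured with a cell viability readout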
Description: SANGER: Inhibition of human TE-8 cell growth in a cell viability assay.

SW872 = format: functional, cell-based;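 also: growth inhibition of SW872 cells, read out by a viability assay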
Description: SANGER: Inhibition of human SW872 cell growth in a cell viability assay.

LB771-HNC = format: functional, cell-based;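 also: growth inhibition of LB771-HNC human cells, read out with a cell viability assay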
Description: SANGER: Inhibition of human LB771-HNC cell growth in a cell viability assay.

NCI-H209 = format: functional, cell-based
Description: SANGER: Inhibition of human NCI-H209 cell growth in a cell viability assay.

HT-144 = format: functional, cell-based
Description: SANGER: Inhibition of human HT-144 cell growth in a cell viability assay.

HCE-4 = format: functional, cell-based
Description: SANGER: Inhibition of human HCE-4 cell growth in a cell viability assay.

`CC(O)(CS(=O)(=O)c1ccc(F)cc1)C(=O)Nc1ccc(C#N)c(C(F)(F)F)c1` (configuration not stated) [BICALUTAMIDE] gave a pIC50 (ACN) of less than 5.99, a pIC50 (NCI-H1581) of less than 5.99 and a pIC50 (EM-2) of less than 5.99. The pIC50 (A4-Fuk) was less than 5.99, the pIC50 (TE-11) was less than 5.99 and the pIC50 (OS-RC-2) was less than 5.99. The pIC50 (KM12) was less than 5.99, the pIC50 (SJSA-1) was less than 5.99 and the pIC50 (CAS-1) was less than 5.99. The pIC50 (DOHH-2) was less than 5.99, the pIC50 (TE-1) was less than 5.99 and the pIC50 (LS-123) was less than 5.99. It also gave a pIC50 (NCI-H2126) of less than 5.99, a pIC50 (8-MG-BA) of less than 5.99 and a pIC50 (PSN1) of less than 5.99. The pIC50 (HOP-62) was less than 5.99, the pIC50 (P30-OHK) was less than 5.99 and the pIC50 (NCI-H226) was less than 5.99. It also gave a pIC50 (SNU-5) of less than 5.99, a pIC50 (CW-2) of less than 5.99 and a pIC50 (SW684) of less than 5.99. For the same compound, the pIC50 (ML-2) was less than 5.99, the pIC50 (HCE-T) was less than 5.99 and the pIC50 (MFH-ino) was less than 5.99. It also gave a pIC50 (SK-LMS-1) of less than 5.99, a pIC50 (NH-12) of less than 5.99 and a pIC50 (BB30-HNC) of less than 5.99. For the same compound, the pIC50 (EW-16) was less than 5.99, the pIC50 (COR-L88) was less than 5.99 and the pIC50 (BB65-RCC) was less than 5.99. It also gave a pIC50 (LS-1034) of less than 5.99, a pIC50 (ES7) of less than 5.99 and a pIC50 (IA-LM) of less than 5.99. It also gave a pIC50 (COLO-829) of less than 5.99, a pIC50 (LU-139) of less than 5.99 and a pIC50 (LB2241-RCC) of less than 5.99. The pIC50 (U-87 MG) was less than 5.99, the pIC50 (EW-18) was less than 5.99 and the pIC50 (LC-2-ad) was less than 5.99. For the same compound, the pIC50 (NB69) was less than 5.99, the pIC50 (BV-173) was less than 5.99 and the pIC50 (NMC-G1) was less than 5.99. It also gave a pIC50 (A3-KAW) of less than 5.99, a pIC50 (K5) of less than 5.99 and a pIC50 (KGN) of less than 5.99. The pIC50 (MPP-89) was less than 5.99, the pIC50 (LS-411N) was less than 5.99 and the pIC50 (A498) was less than 5.99. The pIC50 (NCI-H23) was less than 5.99, the pIC50 (SF-539) was less than 5.99 and the pIC50 (MHH-NB-11) was less than 5.99. The pIC50 (QIMR-WIL) was less than 5.99, the pIC50 (EW-1) was less than 5.99 and the pIC50 (COLO-668) was less than 5.99. It also gave a pIC50 (ALL-PO) of less than 5.99, a pIC50 (NB13) of less than 5.99 and a pIC50 (D283 Med) of less than 5.99. It also gave a pIC50 (EW-3) of less than 5.99, a pIC50 (CTB-1) of less than 5.99 and a pIC50 (D-502MG) of less than 5.99. The pIC50 (TE-8) was less than 5.99, the pIC50 (SW872) was less than 5.99 and the pIC50 (LB771-HNC) was less than 5.99. The pIC50 (NCI-H209) was less than 5.99, the pIC50 (HT-144) was less than 5.99 and the pIC50 (HCE-4) was less than 5.99.
Compound `COc1cc(Nc2c(C#N)cnc3cc(OCCCN4CCN(C)CC4)c(OC)cc23)c(Cl)cc1Cl` [BOSUTINIB] has a pIC50 (ACN) of less than 5.70, a pIC50 (NCI-H1581) of less than 5.70 and a pIC50 (EM-2) of 6.36. It also gave a pIC50 (A4-Fuk) of 5.88, a pIC50 (TE-11) of less than 5.70 and a pIC50 (OS-RC-2) of less than 5.70. It also gave a pIC50 (KM12) of less than 5.70, a pIC50 (SJSA-1) of less than 5.70 and a pIC50 (CAS-1) of less than 5.70. For the same compound, the pIC50 (DOHH-2) was less than 5.70, the pIC50 (TE-1) was less than 5.70 and the pIC50 (LS-123) was less than 5.70. It also gave a pIC50 (NCI-H2126) of less than 5.70, a pIC50 (8-MG-BA) of less than 5.70 and a pIC50 (PSN1) of less than 5.70. For the same compound, the pIC50 (HOP-62) was less than 5.70, the pIC50 (P30-OHK) was less than 5.70 and the pIC50 (NCI-H226) was less than 5.70. It also gave a pIC50 (SNU-5) of less than 5.70, a pIC50 (CW-2) of less than 5.70 and a pIC50 (SW684) of less than 5.70. The pIC50 (ML-2) was less than 5.70, the pIC50 (HCE-T) was less than 5.70 and the pIC50 (MFH-ino) was less than 5.70. It also gave a pIC50 (SK-LMS-1) of less than 5.70, a pIC50 (NH-12) of less than 5.70 and a pIC50 (BB30-HNC) of 5.89. It also gave a pIC50 (EW-16) of 5.84, a pIC50 (COR-L88) of less than 5.70 and a pIC50 (BB65-RCC) of 5.72. For the same compound, the pIC50 (LS-1034) was less than 5.70, the pIC50 (ES7) was less than 5.70 and the pIC50 (IA-LM) was less than 5.70. The pIC50 (COLO-829) was less than 5.70, the pIC50 (LU-139) was less than 5.70 and the pIC50 (LB2241-RCC) was 6.27. It also gave a pIC50 (U-87 MG) of less than 5.70, a pIC50 (EW-18) of less than 5.70 and a pIC50 (LC-2-ad) of less than 5.70. It also gave a pIC50 (NB69) of less than 5.70, a pIC50 (BV-173) of 6.29 and a pIC50 (NMC-G1) of less than 5.70. The pIC50 (A3-KAW) was 6.10, the pIC50 (K5) was less than 5.70 and the pIC50 (KGN) was less than 5.70. The pIC50 (MPP-89) was less than 5.70, the pIC50 (LS-411N) was less than 5.70 and the pIC50 (A498) was 5.85. The pIC50 (NCI-H23) was less than 5.70, the pIC50 (SF-539) was less than 5.70 and the pIC50 (MHH-NB-11) was 5.88. The pIC50 (QIMR-WIL) was 5.96, the pIC50 (EW-1) was less than 5.70 and the pIC50 (COLO-668) was less than 5.70. It also gave a pIC50 (ALL-PO) of less than 5.70, a pIC50 (NB13) of less than 5.70 and a pIC50 (D283 Med) of less than 5.70. The pIC50 (EW-3) was 6.25, the pIC50 (CTB-1) was 6.26 and the pIC50 (D-502MG) was less than 5.70. It also gave a pIC50 (TE-8) of less than 5.70, a pIC50 (SW872) of less than 5.70 and a pIC50 (LB771-HNC) of 6.08. For the same compound, the pIC50 (NCI-H209) was 6.39, the pIC50 (HT-144) was less than 5.70 and the pIC50 (HCE-4) was less than 5.70.

Source: ChEMBL document CHEMBL1201861, “Genomics of Drug Sensitity in Cancer screening data, Wellcome Trust Sanger Institute”
